Reference: ChEMBL document CHEMBL1201862, “PubChem BioAssay data set” (2004)
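Method: 48-hour compound exposure of cells in 96-well plates, five concentrations, linear interpolation of endpoints. GI50 marks 50% less growth.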 Activity calls are given as the source filed them. Cut-off read from the data, not from the text of the source: active = GI50 up to about 1.1 µM and inactive = higher.

What was measured:
Assay in all cases: NCI anticancer screen, dose series, 48 h
[1] = test system: Malme-3M
[2] = test system: HCT-15
[3] = test system: CCRF-CEM
[4] = test system: SNB-19
[5] = test system: SK-MEL-2
[6] = test system: SN12C
[7] = test system: CAKI-1
[8] = test system: M14
[9] = test system: UACC-257
[10] = test system: UACC-62
[11] = test system: A498
[12] = test system: MDA-MB-435
[13] = test system: SF-539
[14] = test system: EKVX
[15] = test system: NCI-H226
[16] = test system: PC-3
[17] = test system: OVCAR-8
[18] = test system: COLO 205
[19] = test system: HT-29
[20] = test system: RXF 393

| Compound | GI50 [1] | GI50 [2] [µM] | GI50 [3] | GI50 [4] | GI50 [5] | GI50 [6] | GI50 [7] | GI50 [8] | GI50 [9] | GI50 [10] | GI50 [11] | GI50 [12] | GI50 [13] | GI50 [14] | GI50 [15] | GI50 [16] | GI50 [17] | GI50 [18] | GI50 [19] | GI50 [20] |
| --- | --- | --- | --- | --- | --- | --- | --- | --- | --- | --- | --- | --- | --- | --- | --- | --- | --- | --- | --- | --- |
| O=C(O)COc1cc(-c2ccccc2)nc2ccccc12 | > 100 µM (inactive) | 36.9 | 56.2 µM (inactive) | 98.4 µM (inactive) | > 100 µM (inactive) | > 100 µM (inactive) | > 100 µM (inactive) | 71 µM (inactive) | > 100 µM (inactive) | > 10 µM (inactive) | 65.3 µM (inactive) | 16 µM (inactive) | 70.8 µM (inactive) | > 100 µM (inactive) | > 100 µM (inactive) | > 100 µM (inactive) | > 100 µM (inactive) | 51.1 µM (inactive) | 35.4 µM (inactive) |  |
| O=C1c2scc(-c3ccccc3)c2-n2cccc21 | 16.4 µM (inactive) | 34.1 | 19.7 µM (inactive) | 15.9 µM (inactive) | 12.2 µM (inactive) | 29.8 µM (inactive) | 11.4 µM (inactive) | 18 µM (inactive) | 30.1 µM (inactive) | 17.9 µM (inactive) | 1.72 µM (inactive) | 14.5 µM (inactive) |  | 4.89 µM (inactive) | 10.2 µM (inactive) | 11.7 µM (inactive) | 13.5 µM (inactive) | 17.8 µM (inactive) | 10.9 µM (inactive) | 14 µM (inactive) |
| CC1CNC(NS(=O)(=O)c2cc(C(=O)Nc3ccc(Cl)cc3)c(Cl)cc2S)=NN1 (configuration not stated) | 17.9 µM (inactive) | 20.8 | 34.9 µM (inactive) | 35.1 µM (inactive) | 28.9 µM (inactive) | 38.8 µM (inactive) | 51.5 µM (inactive) | 21.7 µM (inactive) | 54.2 µM (inactive) | 29.2 µM (inactive) | 18.1 µM (inactive) | 23.4 µM (inactive) | 30.8 µM (inactive) | 63 µM (inactive) | 27.5 µM (inactive) | 30 µM (inactive) | 25.4 µM (inactive) | 41.7 µM (inactive) | 36.3 µM (inactive) |  |
| [N-]=[N+]=CC(=O)OCC1SCCCS1 | > 100 µM (inactive) | > 100 | > 100 µM (inactive) | > 100 µM (inactive) | > 100 µM (inactive) | > 100 µM (inactive) | 50.4 µM (inactive) |  | > 100 µM (inactive) | > 100 µM (inactive) | > 100 µM (inactive) | > 100 µM (inactive) |  | > 100 µM (inactive) | > 100 µM (inactive) | > 100 µM (inactive) |  | > 100 µM (inactive) | > 100 µM (inactive) | > 100 µM (inactive) |
| CCOC(=O)c1cc(=O)oc2c1N(C)c1ncccc1N2 |  | > 100 |  | > 100 µM (inactive) | > 100 µM (inactive) | > 100 µM (inactive) | > 100 µM (inactive) | > 100 µM (inactive) | > 100 µM (inactive) | > 100 µM (inactive) | > 100 µM (inactive) | > 100 µM (inactive) |  |  | > 100 µM (inactive) | > 100 µM (inactive) | > 100 µM (inactive) | > 100 µM (inactive) |  | > 100 µM (inactive) |
| O=C(/N=N/c1ccccc1Br)NNc1ccccc1Br | 38.2 µM (inactive) | 61.2 | 31 µM (inactive) | > 100 µM (inactive) | 35.4 µM (inactive) | 77.6 µM (inactive) | 33 µM (inactive) | 60.8 µM (inactive) | > 100 µM (inactive) | 48.8 µM (inactive) | 58.7 µM (inactive) | 84.5 µM (inactive) |  |  | > 100 µM (inactive) | 38.2 µM (inactive) | > 100 µM (inactive) |  | > 100 µM (inactive) |  |
| O=C(NC(CO)Cc1ccc(Oc2cc(CC(CO)NC(=O)OCc3ccccc3)ccc2OC(=O)OCc2ccccc2)cc1)OCc1ccccc1 (configuration not stated) | 16.7 µM (inactive) | 24.9 | 4.28 µM (inactive) | 22.4 µM (inactive) | 19.3 µM (inactive) | 19.1 µM (inactive) | 26 µM (inactive) | 18.2 µM (inactive) | 15 µM (inactive) |  | 14.7 µM (inactive) | 16.6 µM (inactive) | 20.1 µM (inactive) | 14.5 µM (inactive) | 16.9 µM (inactive) | 11.4 µM (inactive) | 15.4 µM (inactive) | 18.2 µM (inactive) | 14.2 µM (inactive) |  |
| c1ccc(C[n+]2cccc(-c3cc4ccccc4[nH]3)c2)cc1 | 14.6 µM (inactive) | > 100 | 19.9 µM (inactive) | 26.5 µM (inactive) | 16.6 µM (inactive) | 15.4 µM (inactive) | > 100 µM (inactive) | 21.7 µM (inactive) | 14.9 µM (inactive) | 15.7 µM (inactive) | 39.5 µM (inactive) | 18.5 µM (inactive) |  | 42.8 µM (inactive) | 31.2 µM (inactive) | 39.2 µM (inactive) | 38.3 µM (inactive) | 15 µM (inactive) | 32.5 µM (inactive) | > 100 µM (inactive) |
| COC(CC1(/C=C/O[Si](C(C)C)(C(C)C)C(C)C)C(=O)N(C)c2ccccc21)OC (configuration not stated) |  | 40.9 | 64.7 µM (inactive) | > 100 µM (inactive) | > 100 µM (inactive) | 78.9 µM (inactive) | > 100 µM (inactive) | 94.8 µM (inactive) | 47 µM (inactive) | > 100 µM (inactive) | > 100 µM (inactive) | 76.2 µM (inactive) |  | 46 µM (inactive) | 24.1 µM (inactive) | 49.3 µM (inactive) | 54.3 µM (inactive) | 58.9 µM (inactive) |  | 59.6 µM (inactive) |
| C1=C\SS/C=C\SS/C=C\SS/C=C\SS/1 | 41.7 µM (inactive) | 21.5 | 10.2 µM (inactive) | 67.5 µM (inactive) | > 100 µM (inactive) | > 100 µM (inactive) | 30.3 µM (inactive) | 83.9 µM (inactive) | 78.5 µM (inactive) | > 100 µM (inactive) | > 100 µM (inactive) | > 100 µM (inactive) |  | > 100 µM (inactive) | > 100 µM (inactive) | > 100 µM (inactive) | 44.8 µM (inactive) | > 100 µM (inactive) | 31.6 µM (inactive) | 80.9 µM (inactive) |
| CC/C=C/c1cc2c(cc1O)CCC1C2CC[C@@]2(C)C1CC[C@@H]2O (some centres not stated) | 0.524 µM (active) | 4.33 | 1.73 µM (inactive) | 2.6 µM (inactive) | 1.21 µM (inactive) |  | 0.524 µM (active) | 1.17 µM (inactive) | 10.4 µM (inactive) |  | 2.56 µM (inactive) | 0.246 µM (active) |  | 3.53 µM (inactive) | 1.47 µM (inactive) | 3.49 µM (inactive) | 4.31 µM (inactive) | 14 µM (inactive) | 7.93 µM (inactive) | 1.08 µM (active) |
| COc1ccc(N)c(C(O)CCNC(C)=O)c1 (configuration not stated) |  | > 100 | > 100 µM (inactive) | > 100 µM (inactive) | > 100 µM (inactive) | > 100 µM (inactive) | > 100 µM (inactive) | > 100 µM (inactive) | > 100 µM (inactive) | > 100 µM (inactive) | > 100 µM (inactive) | > 100 µM (inactive) | > 100 µM (inactive) | > 100 µM (inactive) | > 100 µM (inactive) | > 100 µM (inactive) | > 100 µM (inactive) | > 100 µM (inactive) | > 100 µM (inactive) | > 100 µM (inactive) |
| O=C(CCc1cc(O)cc(O)c1)NCCc1ccc(O)c(O)c1 |  | > 100 | 17.3 µM (inactive) | > 100 µM (inactive) | > 100 µM (inactive) | > 100 µM (inactive) | > 100 µM (inactive) | > 100 µM (inactive) | > 100 µM (inactive) | > 100 µM (inactive) | > 100 µM (inactive) | 21.6 µM (inactive) | > 100 µM (inactive) | > 100 µM (inactive) | > 100 µM (inactive) | > 100 µM (inactive) | > 100 µM (inactive) | > 100 µM (inactive) | > 100 µM (inactive) | > 100 µM (inactive) |
| CC1(C)OCC(C2CCC3(C)C4=CCC5C(C)(C)C(O)CCC5(C)C4CCC23C)CC(O)C1O (configuration not stated) | 15.6 µM (inactive) | 15.8 | 25.8 µM (inactive) | 14.8 µM (inactive) | 16.3 µM (inactive) | 18.7 µM (inactive) | 14 µM (inactive) | 16.9 µM (inactive) | 12.2 µM (inactive) | 14.5 µM (inactive) | 24.7 µM (inactive) | 16.4 µM (inactive) | 18.8 µM (inactive) | 14.6 µM (inactive) | 17.3 µM (inactive) | 11.3 µM (inactive) | 17.5 µM (inactive) | 22.5 µM (inactive) | 18.2 µM (inactive) |  |
| Cn1ccc(C(=O)NCCCCCNC(=O)c2ccn(C)c(=O)c2O)c(O)c1=O | > 100 µM (inactive) | > 100 | > 100 µM (inactive) | > 100 µM (inactive) | > 100 µM (inactive) | > 100 µM (inactive) | > 100 µM (inactive) |  | > 100 µM (inactive) | > 100 µM (inactive) | > 100 µM (inactive) | > 100 µM (inactive) |  |  | > 100 µM (inactive) | > 100 µM (inactive) | > 100 µM (inactive) | > 100 µM (inactive) | > 100 µM (inactive) |  |
| Cc1ccc(/C=N/NS(=O)(=O)c2ccc(/C=C3\NC(=O)NC3=O)cc2)cc1 | > 100 µM (inactive) | > 100 | > 100 µM (inactive) | 31 µM (inactive) | > 100 µM (inactive) | > 100 µM (inactive) | > 100 µM (inactive) | > 100 µM (inactive) | > 100 µM (inactive) | > 100 µM (inactive) | > 100 µM (inactive) | > 100 µM (inactive) |  | 64.9 µM (inactive) | > 100 µM (inactive) | > 100 µM (inactive) | 37.8 µM (inactive) | > 100 µM (inactive) | > 100 µM (inactive) | > 100 µM (inactive) |
